From patent publication US20260042731A1, “(2,4-DICHLOROPHENOXY)ACETIC ACID ANALOGS” (CORTEVA AGRISCIENCE LLC, priority 2022, published 2026)
Like-named read-outs stand apart in the source and are kept apart here.

Columns and labels:
[1] = system: weeds ABUTH, AMATA, AMBEL, CHEAL, ERICA; assay: Postemergence herbicide evaluation, overall average % weed control (ABUTH, AMATA, AMBEL, CHEAL, ERICA); format: in vivo; settings: for pest or weed control at 280 g/ha / pest or weed control at 560 g/ha: post-emergence, read-out: Overall Ave % Weed Control
[2] = system: Amaranthus rudis (AMATA), tall water hemp; assay: Postemergence herbicide evaluation, growth of Amaranthus rudis (AMATA); format: in vivo; settings: for pest or weed control at 280 g/ha / pest or weed control at 560 g/ha: Amaranthus tuberculatus, post-emergence, read-out: Ave. AMATA, percent reduction in plant size relative to the untreated control
[3] = Volatility of compounds measured by thermogravimetric analysis (TGA); format: physicochemical
[4] = system: Chenopodium album (CHEAL), common lambsquarters; assay: Postemergence herbicide evaluation, growth of Chenopodium album (CHEAL); format: in vivo; settings: for pest or weed control at 280 g/ha / pest or weed control at 560 g/ha: Chenopodium album, post-emergence, read-out: Ave. CHEAL, percent reduction in plant size relative to the untreated control
[5] = system: Abutilon theophrasti (ABUTH), velvetleaf; assay: Postemergence herbicide evaluation, growth of Abutilon theophrasti (ABUTH); format: in vivo; settings: for pest or weed control at 280 g/ha / pest or weed control at 560 g/ha: Abutilon theophrasti, post-emergence, read-out: AVE. ABUTH, percent reduction in plant size relative to the untreated control
[6] = system: Ambrosia artemisiifolia (AMBEL), common ragweed; assay: Postemergence herbicide evaluation, growth of Ambrosia artemisiifolia (AMBEL); format: in vivo; settings: for pest or weed control at 280 g/ha / pest or weed control at 560 g/ha: Ambrosia artemisiifolia, post-emergence, read-out: AVE. AMBEL, percent reduction in plant size relative to the untreated control
[7] = system: glyphosate resistant Conyza canadensis (L.) (ERICA), horseweed; assay: Postemergence herbicide evaluation, growth of Conyza canadensis (ERICA); format: in vivo; settings: for pest or weed control at 280 g/ha / pest or weed control at 560 g/ha: Erigeron canadensis, post-emergence, read-out: Ave. ERICA, percent reduction in plant size relative to the untreated control

SMILES: O=C(COc1ccc(Cl)cc1Cl)Oc1cncnc1 [Compound E1]
- Overall Ave % Weed Control ([1]; 280 g ae/ha, 7 DAA): 75%
- Overall Ave % Weed Control ([1]; 280 g ae/ha, 14 DAA): 85%
- Overall Ave % Weed Control ([1]; 280 g ae/ha, 21 DAA): 88%
- Overall Ave % Weed Control ([1]; 560 g ae/ha, 7 DAA): 76%
- Overall Ave % Weed Control ([1]; 560 g ae/ha, 14 DAA): 89%
- Overall Ave % Weed Control ([1]; 560 g ae/ha, 21 DAA): 93%
- Ave. AMATA, percent reduction in plant size relative to the untreated control ([2]; 280 g ae/ha, 7 DAA): 78%
- Ave. AMATA, percent reduction in plant size relative to the untreated control ([2]; 280 g ae/ha, 14 DAA): 75%
- Ave. AMATA, percent reduction in plant size relative to the untreated control ([2]; 280 g ae/ha, 21 DAA): 70%
- Ave. AMATA, percent reduction in plant size relative to the untreated control ([2]; 560 g ae/ha, 7 DAA): 73%
- Ave. AMATA, percent reduction in plant size relative to the untreated control ([2]; 560 g ae/ha, 14 DAA): 85%
- Ave. AMATA, percent reduction in plant size relative to the untreated control ([2]; 560 g ae/ha, 21 DAA): 85%
- TGA Data (rate of weight loss, volatility) [3]: 0.8 µg/min
- Ave. CHEAL, percent reduction in plant size relative to the untreated control ([4]; 280 g ae/ha, 7 DAA): 70%
- Ave. CHEAL, percent reduction in plant size relative to the untreated control ([4]; 280 g ae/ha, 14 DAA): 73%
- Ave. CHEAL, percent reduction in plant size relative to the untreated control ([4]; 280 g ae/ha, 21 DAA): 78%
- Ave. CHEAL, percent reduction in plant size relative to the untreated control ([4]; 560 g ae/ha, 7 DAA): 75%
- Ave. CHEAL, percent reduction in plant size relative to the untreated control ([4]; 560 g ae/ha, 14 DAA): 90%
- Ave. CHEAL, percent reduction in plant size relative to the untreated control ([4]; 560 g ae/ha, 21 DAA): 87%
- AVE. ABUTH, percent reduction in plant size relative to the untreated control ([5]; 280 g ae/ha, 7 DAA): 93%
- AVE. ABUTH, percent reduction in plant size relative to the untreated control ([5]; 280 g ae/ha, 14 DAA): 96%
- AVE. ABUTH, percent reduction in plant size relative to the untreated control ([5]; 280 g ae/ha, 21 DAA): 100%
- AVE. ABUTH, percent reduction in plant size relative to the untreated control ([5]; 560 g ae/ha, 7 DAA): 85%
- AVE. ABUTH, percent reduction in plant size relative to the untreated control ([5]; 560 g ae/ha, 14 DAA): 97%
- AVE. ABUTH, percent reduction in plant size relative to the untreated control ([5]; 560 g ae/ha, 21 DAA): 100%
- AVE. AMBEL, percent reduction in plant size relative to the untreated control ([6]; 280 g ae/ha, 7 DAA): 65%
- AVE. AMBEL, percent reduction in plant size relative to the untreated control ([6]; 280 g ae/ha, 14 DAA): 96%
- AVE. AMBEL, percent reduction in plant size relative to the untreated control ([6]; 280 g ae/ha, 21 DAA): 99%
- AVE. AMBEL, percent reduction in plant size relative to the untreated control ([6]; 560 g ae/ha, 7 DAA): 73%
- AVE. AMBEL, percent reduction in plant size relative to the untreated control ([6]; 560 g ae/ha, 14 DAA): 90%
- AVE. AMBEL, percent reduction in plant size relative to the untreated control ([6]; 560 g ae/ha, 21 DAA): 97%
- Ave. ERICA, percent reduction in plant size relative to the untreated control ([7]; 280 g ae/ha, 7 DAA): 68%
- Ave. ERICA, percent reduction in plant size relative to the untreated control ([7]; 280 g ae/ha, 14 DAA): 85%
- Ave. ERICA, percent reduction in plant size relative to the untreated control ([7]; 280 g ae/ha, 21 DAA): 95%
- Ave. ERICA, percent reduction in plant size relative to the untreated control ([7]; 560 g ae/ha, 7 DAA): 75%
- Ave. ERICA, percent reduction in plant size relative to the untreated control ([7]; 560 g ae/ha, 14 DAA): 85%
- Ave. ERICA, percent reduction in plant size relative to the untreated control ([7]; 560 g ae/ha, 21 DAA): 98%

SMILES: O=C(COc1ccc(Cl)cc1Cl)Oc1ncc(Cl)cn1 [Compound E13]
- pest or weed control at 280 g/ha ([1]; 168 h, 280 g ae/ha, 7 DAA): 78.3%
- pest or weed control at 560 g/ha ([1]; 168 h, 560 g ae/ha, 7 DAA): 81.5%
- pest or weed control at 280 g/ha ([1]; 336 h, 280 g ae/ha, 14 DAA): 91.4%
- pest or weed control at 560 g/ha ([1]; 336 h, 560 g ae/ha, 14 DAA): 95.2%
- pest or weed control at 280 g/ha ([1]; 504 h, 280 g ae/ha, 21 DAA): 96.5%
- pest or weed control at 560 g/ha ([1]; 504 h, 560 g ae/ha, 21 DAA): 99.3%
- pest or weed control at 280 g/ha ([2]; 168 h, 280 g ae/ha, 7 DAA): 85%
- pest or weed control at 560 g/ha ([2]; 168 h, 560 g ae/ha, 7 DAA): 87.5%
- pest or weed control at 280 g/ha ([2]; 336 h, 280 g ae/ha, 14 DAA): 82.5%
- pest or weed control at 560 g/ha ([2]; 336 h, 560 g ae/ha, 14 DAA): 96%
- pest or weed control at 280 g/ha ([2]; 504 h, 280 g ae/ha, 21 DAA): 86.5%
- pest or weed control at 560 g/ha ([2]; 504 h, 560 g ae/ha, 21 DAA): 99%
- TGA Data (rate of weight loss, volatility) [3]: 0.16 µg/min
- pest or weed control at 280 g/ha ([4]; 168 h, 280 g ae/ha, 7 DAA): 77.5%
- pest or weed control at 560 g/ha ([4]; 168 h, 560 g ae/ha, 7 DAA): 85%
- pest or weed control at 280 g/ha ([4]; 336 h, 280 g ae/ha, 14 DAA): 95%
- pest or weed control at 560 g/ha ([4]; 336 h, 560 g ae/ha, 14 DAA): 90%
- pest or weed control at 280 g/ha ([4]; 504 h, 280 g ae/ha, 21 DAA): 96.5%
- pest or weed control at 560 g/ha ([4]; 504 h, 560 g ae/ha, 21 DAA): 100%
- pest or weed control at 280 g/ha ([5]; 168 h, 280 g ae/ha, 7 DAA): 76.5%
- pest or weed control at 560 g/ha ([5]; 168 h, 560 g ae/ha, 7 DAA): 72.5%
- pest or weed control at 280 g/ha ([5]; 336 h, 280 g ae/ha, 14 DAA): 90%
- pest or weed control at 560 g/ha ([5]; 336 h, 560 g ae/ha, 14 DAA): 93.5%
- pest or weed control at 280 g/ha ([5]; 504 h, 280 g ae/ha, 21 DAA): 100%
- pest or weed control at 560 g/ha ([5]; 504 h, 560 g ae/ha, 21 DAA): 100%
- pest or weed control at 280 g/ha ([6]; 168 h, 280 g ae/ha, 7 DAA): 70%
- pest or weed control at 560 g/ha ([6]; 168 h, 560 g ae/ha, 7 DAA): 82.5%
- pest or weed control at 280 g/ha ([6]; 336 h, 280 g ae/ha, 14 DAA): 89.5%
- pest or weed control at 560 g/ha ([6]; 336 h, 560 g ae/ha, 14 DAA): 97.5%
- pest or weed control at 280 g/ha ([6]; 504 h, 280 g ae/ha, 21 DAA): 100%
- pest or weed control at 560 g/ha ([6]; 504 h, 560 g ae/ha, 21 DAA): 100%
- pest or weed control at 280 g/ha ([7]; 168 h, 280 g ae/ha, 7 DAA): 82.5%
- pest or weed control at 560 g/ha ([7]; 168 h, 560 g ae/ha, 7 DAA): 80%
- pest or weed control at 280 g/ha ([7]; 336 h, 280 g ae/ha, 14 DAA): 100%
- pest or weed control at 560 g/ha ([7]; 336 h, 560 g ae/ha, 14 DAA): 99%
- pest or weed control at 280 g/ha ([7]; 504 h, 280 g ae/ha, 21 DAA): 99.5%
- pest or weed control at 560 g/ha ([7]; 504 h, 560 g ae/ha, 21 DAA): 97.5%
